Where “and” joins values, the source holds several entries; their conditions need not be identical. Equal values may be shown once. Read-outs that look alike come from different tables or passages of the source.
Legend:
[1] = target: T1, RFK module of CaFADS (Corynebacterium ammoniagenes, UniProt Q59263, L183M); assay: Isothermal titration calorimetry of binary and ternary interactions; assay type: binding
T1 construct: a truncated CaFADS variant consisting in the isolated C-terminal RFK module; made in house; host or cells: E. coli BL21(DE3)
T1 sequence (Q59263 183-338 L183M): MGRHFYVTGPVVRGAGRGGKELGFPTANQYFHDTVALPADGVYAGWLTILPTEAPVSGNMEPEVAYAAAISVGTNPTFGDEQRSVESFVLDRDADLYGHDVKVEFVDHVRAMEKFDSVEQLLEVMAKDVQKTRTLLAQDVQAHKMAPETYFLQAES
Protocol: Isothermal titration calorimetry (ITC) experiments were performed to elucidate the order in which ligands bind to the enzyme, as well as the binding inhibition effects from the thermodynamic point of view. Experiments were carried out in an AutoITC200 (MicroCal) that was thermostated at 25 °C. […] Titrations with FLV ligands of mixtures that contained the enzyme prebound with the ANP ligand were also carried out, as well as ANP titrations of mixtures of the enzyme saturated with FLV ligands. In these experiments, the titration was performed by stepwise injecting the titrating ligand. Up to 19 injections of 2 μL each were added to the calorimetric sample cell and mixed at a stirring speed of 1000 r.p.m. Ligands and protein were dissolved in 20 mM PIPES, pH 7.0, either in the presence or absence of 0.8 mM MgCl2, and degassed prior to titration. The association constant (K a), the enthalpy change (ΔH) and the binding stoichiometry (N) were obtained through a nonlinear least squares regression of the data using a homemade model for one or two independent binding sites, which was implemented in Origin 7.0 (OriginLab) as previously described, [20]. The entropic contribution (-TΔS), the Gibbs free energy (ΔG) and the dissociation constant (K d) were obtained through essential thermodynamic equations.
Experiments were performed in triplicate.

[2] = target: T1, RFK module of CaFADS; assay: Steady-state RFK activity (HPLC quantification of flavins); assay type: biochemical; details: for type of inhibition of the RFK activity: Dixon, Cornish-Bowden and Lineweaver-Burk plots
Protocol: In all cases, reactions were initiated by addition of the enzyme to a final concentration of ≈40 nM, which was followed by 1 min of incubation, and the reactions were stopped by boiling the samples at 100 °C for 5 min as previously described, [20]. The flavin composition of the supernatant was analyzed using an Alliance HPLC system (Waters) equipped with a 2707 autosampler and an HSST3 column (4.6 × 50 mm, […]; Waters) preceded by a precolumn (4.6 × 20 mm, […]; Waters) as previously described, [20]. […] All the experiments were carried out in triplicate.
Additionally, Dixon plots (1/(v 0/[e]) vs [I]) and Cornish-Bowden representations ([S]/(v 0/[e]) vs [I]) were used to reveal the type of inhibition, [43].

[3] = Flavin photobleaching decay in the stopped-flow equipment; assay type: physicochemical; details: for photobleaching rate: flavin fluorescence decay during stopped-flow measurements, 25 °C, 0.8 mM MgCl2, pH 7.0; for rate of slow linear fluorescence decay (photobleaching range): flavin mixed with the RFK module without ANP, stopped-flow
Excerpt: Due to the deterioration that flavins undergo when they are exposed to light, we also evaluated the FLV photobleaching decay during measurements.

[4] = initial mixture RFK:FMN, 0.0 mM MgCl2
[5] = initial mixture RFK:FMN, 0.8 mM MgCl2
[6] = initial mixture RFK:RF, 0.0 mM MgCl2
[7] = initial mixture RFK, 0.0 mM MgCl2
[8] = initial mixture RFK, 0.8 mM MgCl2
[9] = apparent, ATP varied, ~5 µM RF, [ADP] 20 μM
[10] = apparent, ATP varied, ~5 µM RF, [ADP] 50 μM
[11] = apparent, ATP varied, ~5 µM RF, [ADP] 90 μM
[12] = apparent, ATP varied, ~5 µM RF, [ADP] 170 μM
[13] = initial mixture RFK:ADP, 0.0 mM MgCl2
[14] = initial mixture RFK:ADP, 0.8 mM MgCl2
[15] = initial mixture RFK:ATP, 0.0 mM MgCl2
[16] = apparent, RF varied, saturating ATP, [FMN] 1 μM
[17] = apparent, RF varied, saturating ATP, [FMN] 2 μM
[18] = apparent, RF varied, saturating ATP, [FMN] 3 μM
[19] = apparent, RF varied, saturating ATP, [FMN] 5 μM
[20] = initial mixture RFK:ATP, 0.8 mM MgCl2
[21] = initial mixture RFK:RF, 0.8 mM MgCl2

Question: With `Nc1ncnc2c1ncn2[C@@H]1O[C@H](COP(=O)(O)OP(=O)(O)OP(=O)(O)O)[C@@H](O)[C@H]1O` [ATP] as the molecule, how does the “-TΔS” value [1, 4] read?
Answer: The value was 9.3 kcal/mol.

Question: What about the ΔH [1, 4] of the same molecule?
Answer: Its ΔH is -17.9 kcal/mol.

Question: And the “-TΔS” value [1, 5]?
Answer: Its value is 9.3 kcal/mol.

Question: What about the ΔH [1, 5] of the same molecule?
Answer: Its ΔH is -19.5 kcal/mol.

Question: What about the “-TΔS” value [1, 6] of the same molecule?
Answer: Its value is 66.6 kcal/mol.

Question: What about the ΔH [1, 6] of the same molecule?
Answer: The ΔH was -72.5 kcal/mol.

Question: What about the “-TΔS” value [1, 7] of the same molecule?
Answer: The value was -1.0 kcal/mol.

Question: And the ΔH [1, 7]?
Answer: Its ΔH is -5.5 kcal/mol.

Question: And the “-TΔS” value [1, 8]?
Answer: Its value is -0.6 kcal/mol.

Question: What about the ΔG [1, 8] of the same molecule?
Answer: The ΔG was -6.1 kcal/mol.

Question: And the ΔH [1, 8]?
Answer: Its ΔH is -5.6 kcal/mol.

Question: What about the KmATP ([2]; apparent, ATP varied, ~5 µM RF, [ADP] 0 μM, 25 °C, 0.8 mM MgCl2, pH 7.0) of the same molecule?
Answer: The KmATP was 60 ± 11 µM.

Question: And the k cat ([2]; apparent, ATP varied, ~5 µM RF, [ADP] 0 μM, 25 °C, 20 mM PIPES, 0.8 mM MgCl2, pH 7.0)?
Answer: The k cat was 2.67 ± 0.167 s⁻¹.

Question: And the KmATP [2, 9]?
Answer: The KmATP was 110 ± 20 µM.

Question: What about the k cat [2, 9] of the same molecule?
Answer: The k cat was 2.67 ± 0.167 s⁻¹.

Question: What about the KmATP [2, 10] of the same molecule?
Answer: The KmATP was 140 ± 20 µM.

Question: And the k cat [2, 10]?
Answer: Its k cat is 2.33 ± 0.167 s⁻¹.

Question: What about the KmATP [2, 11] of the same molecule?
Answer: The KmATP was 260 ± 20 µM.

Question: What about the k cat [2, 11] of the same molecule?
Answer: Its k cat is 2.83 ± 0.167 s⁻¹.

Question: And the KmATP [2, 12]?
Answer: The KmATP was 700 ± 270 µM.

Question: And the k cat [2, 12]?
Answer: The k cat was 2.83 ± 1 s⁻¹.

Question: And the k cat ([2]; global fit of Lineweaver-Burk equation, competitive inhibition by ADP, ATP varied, ~5 µM RF)?
Answer: The k cat was 2.17 ± 0.5 s⁻¹.

Question: What about the KmATP ([2]; global fit of Lineweaver-Burk equation, competitive inhibition by ADP, ~5 µM RF) of the same molecule?
Answer: The KmATP was 40 ± 20 µM and 40 ± 12 µM.

Question: What does the source list for `Cc1cc2nc3c(=O)[nH]c(=O)nc-3n(C[C@H](O)[C@H](O)[C@H](O)CO)c2cc1C` [RF, riboflavin]?
Answer: photobleaching rate [3]: 0.0046 ± 0.00018 min⁻¹; rate of slow linear fluorescence decay (photobleaching range) [3]: 0.0045 ± 0.00012 min⁻¹; Kd ([1]; Kd, initial mixture RFK:ADP, 0.0 mM MgCl2): 14.5 µM; Kd ([1]; Kd, initial mixture RFK:ADP, 0.8 mM MgCl2): 2.3 µM; Kd ([1]; Kd, initial mixture RFK, 0.8 mM MgCl2, 20 mM PIPES, pH 7.0, 25 °C): 15.2 µM; -TΔS [1, 13]: 67.7 kcal/mol; ΔG [1, 13]: -6.6 kcal/mol; ΔH [1, 13]: -74.3 kcal/mol; -TΔS [1, 14]: 11.5 kcal/mol; ΔG [1, 14]: -7.6 kcal/mol; ΔH [1, 14]: -19.2 kcal/mol; Kd [1, 15]: does not bind; -TΔS [1, 7]: -0.9 kcal/mol; ΔG [1, 7]: -6.9 kcal/mol; ΔH [1, 7]: -5.9 kcal/mol; -TΔS [1, 8]: 4.1 kcal/mol; ΔG [1, 8]: -6.6 kcal/mol; ΔH [1, 8]: -10.6 kcal/mol; Ki [2]: 1.9 ± 0.2 µM; KmRF ([2]; apparent, RF varied, saturating ATP, [FMN] 0 μM): 10 ± 2 µM; k cat ([2]; apparent, RF varied, saturating ATP, [FMN] 0 μM, substrate inhibition model, 25 °C, 0.8 mM MgCl2, pH 7.0): 7.33 ± 0.833 s⁻¹; KmRF [2, 16]: 5.0 ± 1.1 µM; k cat [2, 16]: 4.67 ± 0.667 s⁻¹; KmRF [2, 17]: 7.7 ± 1.4 µM; k cat [2, 17]: 4.5 ± 0.833 s⁻¹; KmRF [2, 18]: 3.6 ± 0.9 µM; k cat [2, 18]: 2.33 ± 0.5 s⁻¹; KmRF [2, 19]: 5.5 ± 2.1 µM; k cat [2, 19]: 2 ± 0.667 s⁻¹; k cat ([2]; global fit of Lineweaver-Burk equation, uncompetitive inhibition by FMN, RF varied, saturating ATP): 5.33 ± 0.667 s⁻¹ and 5.33 ± 0.5 s⁻¹; KmRF ([2]; global fit of Lineweaver-Burk equation, uncompetitive inhibition by FMN, saturating ATP): 6.9 ± 0.4 µM

Question: With `Cc1cc2nc3c(=O)[nH]c(=O)nc-3n(C[C@H](O)[C@H](O)[C@H](O)COP(=O)(O)O)c2cc1C` [FMN, flavin mononucleotide] as the molecule, how does the photobleaching rate [3] read?
Answer: Its photobleaching rate is 0.0041 ± 0.00018 min⁻¹.

Question: And the “rate of slow linear fluorescence decay (photobleaching range)” value [3]?
Answer: The value was 0.0041 ± 0.00024 min⁻¹.

Question: What about the “interaction with the RFK module on titration with the individual ligand” value ([1]; ITC thermograms, free RFK module, titrated at different temperatures) of the same molecule?
Answer: The value was “does not interact or interacts with undetectable ΔCp”.

Question: What about the “-TΔS” value [1, 13] of the same molecule?
Answer: The value was 10.6 kcal/mol.

Question: And the ΔG [1, 13]?
Answer: The ΔG was -7.1 kcal/mol.

Question: And the ΔH [1, 13]?
Answer: Its ΔH is -17.7 kcal/mol.

Question: And the “-TΔS” value [1, 14]?
Answer: The value was -1.9 kcal/mol.

Question: And the ΔG [1, 14]?
Answer: The ΔG was -8.4 kcal/mol.

Question: What about the ΔH [1, 14] of the same molecule?
Answer: Its ΔH is -6.4 kcal/mol.

Question: And the “-TΔS” value [1, 15]?
Answer: The value was 15.4 kcal/mol.

Question: And the ΔG [1, 15]?
Answer: Its ΔG is -6.3 kcal/mol.

Question: What about the ΔH [1, 15] of the same molecule?
Answer: Its ΔH is -21.7 kcal/mol.

Question: And the “-TΔS” value [1, 20]?
Answer: Its value is -0.2 kcal/mol.

Question: What about the ΔG [1, 20] of the same molecule?
Answer: Its ΔG is -7.1 kcal/mol.

Question: What about the ΔH [1, 20] of the same molecule?
Answer: The ΔH was -6.9 kcal/mol.

Question: And the “type of inhibition of the RFK activity” value [2]?
Answer: Its value is “uncompetitive inhibitor”.

Question: What does the source list for `Nc1ncnc2c1ncn2[C@@H]1O[C@H](COP(=O)(O)OP(=O)(O)O)[C@@H](O)[C@H]1O` [ADP]?
Answer: -TΔS [1, 4]: 9.3 kcal/mol; ΔG [1, 4]: -6.6 kcal/mol; ΔH [1, 4]: -15.9 kcal/mol; Kd ([1]; initial mixture RFK:FMN, 0.0 mM MgCl2, read-out: Kd): 14.8 µM; -TΔS [1, 5]: 1.8 kcal/mol; ΔG [1, 5]: -8.5 kcal/mol; ΔH [1, 5]: -10.3 kcal/mol; Kd ([1]; initial mixture RFK:FMN, 0.8 mM MgCl2, read-out: Kd): 0.6 µM; -TΔS [1, 6]: 25.4 kcal/mol; ΔG [1, 6]: -6.5 kcal/mol; ΔH [1, 6]: -31.8 kcal/mol; Kd ([1]; initial mixture RFK:RF, 0.0 mM MgCl2, read-out: Kd): 17.1 µM; -TΔS [1, 21]: 5.2 kcal/mol; ΔG [1, 21]: -8.2 kcal/mol; ΔH [1, 21]: -13.4 kcal/mol; Kd ([1]; initial mixture RFK:RF, 0.8 mM MgCl2, read-out: Kd): 1 µM; -TΔS [1, 7]: 0.6 kcal/mol; ΔG [1, 7]: -5.8 kcal/mol; ΔH [1, 7]: -6.4 kcal/mol; Kd ([1]; initial mixture RFK, 0.0 mM MgCl2, 20 mM PIPES, pH 7.0, 25 °C, read-out: Kd): 51.4 µM; -TΔS [1, 8]: 3.5 kcal/mol; ΔG [1, 8]: -6.4 kcal/mol; ΔH [1, 8]: -9.8 kcal/mol; Kd ([1]; initial mixture RFK, 0.8 mM MgCl2, 20 mM PIPES, pH 7.0, 25 °C, read-out: Kd): 22.1 µM; type of inhibition of the RFK activity [2]: competitive inhibitor; Ki ([2]; global fit of Lineweaver-Burk equation, competitive inhibition, ~5 µM RF, read-out: KiADP): 17 ± 3.3 µM; K m/K i ratio ([2]; product inhibitor potency, KmRF/KiFMN and KmATP/KiADP): ≈ 2.4
